Reference: paper PMC12316891, “A bottom-up approach to find lead compounds in expansive chemical spaces” (Communications Chemistry, 2025)
Read-outs that look alike come from different tables or passages of the source.

Legend:
His6-BRD4 (BD1) = biological target: T1, His6-BRD4 (BD1) (Homo sapiens, UniProt O60885); assay: Surface plasmon resonance (SPR) single-dose screening; type: binding; set-up: key to SPR RESULT: Positive: compounds were considered as SPR hits also when their average signal was further than two standard deviations apart from the average signal of the blank samples (1% DMSO); conditions: for RUs at [10 µM]: SPR, compound 10 µM, 1% DMSO, n = 2, decimal comma; for SPR RESULT: single dose 10 µM, n = 2
T1 construct: A pET28 plasmid containing residues 44–168 of BRD4 (BD1), a 6xHis tag, a TEV protease cleavage site; made in house; host or cells: E. coli Rosetta (D3)

BRD4 (BD1) [1] = biological target: T2, BRD4 (BD1) (Homo sapiens, UniProt O60885); conditions: advanced BRD4 (BD1) drug; cited from earlier work
T2 construct: A pET28 plasmid containing residues 44–168 of BRD4 (BD1), a 6xHis tag, a TEV protease cleavage site; 6xHis (N, cleaved yes); made in house; host or cells: E. coli Rosetta (D3)

BRD4 (BD1) [2] = biological target: T2, BRD4 (BD1); assay: Differential scanning fluorimetry (DSF) single-dose thermal shift screening; type: binding; conditions: read-out: ΔTm ºC at [10 µM]
BRD4 (BD1) [3] = biological target: T2, BRD4 (BD1); assay: Competitive HTRF TR-FRET binding assay (displacement of acetylated histone H4 peptide); conditions: 16-point titration 0.1 nM to 10 µM, n = 2, Negative = curve could not be fitted to a sigmoidal curve; for IC50: read-out: TR-FRET IC50
[4] = DSF, compound 10 µM, BRD4 (BD1) 2 µM, n = 3, decimal comma

SMILES | RUs at [10 µM] (His6-BRD4 (BD1)) | Ki (BRD4 (BD1) [1]) [nM] | ΔTm at 10 µM (BRD4 (BD1) [2]; [4]) [°C] | SPR RESULT (His6-BRD4 (BD1)) | TR-FRET IC50 (nM) (BRD4 (BD1) [3]) | IC50 (BRD4 (BD1) [3]) [nM] | ΔTm at 10 µM (BRD4 (BD1) [2]) [°C]
CCS(=O)(=O)Nc1ccc(Oc2ccc(F)cc2F)c(-c2cn(C)c(=O)c3[nH]ccc23)c1 [Compound 1, CCS(=O)(=O)NC1=CC(=C(C=C1)OC2=C(C=C(C=C2)F)F)C3=CN(C(=O)C4=C3C=CN4)C, reference compound] | 116,86 ± 26,64 RUs | 11 | – | – | – | – | –
Cc1nnc2sc(C(=O)N3CCC4(CCC(NC(=O)Cc5csc(Cl)c5)CC4)CC3)c(N)c2c1C [Compound 60, CC=1N=NC=2SC(C(=O)N3CCC4(CCC(CC4)NC(=O)CC5=CSC(Cl)=C5)CC3)=C(N)C2C1C] | 48,37 ± 15,77 RUs | – | 0.94 | Positive | Negative | – | –
COc1ccc(-c2cc(NC(=O)C(=O)NC(C)c3nnc4ncccn34)ccc2OC)cc1 (centres unmarked) [Compound 47, COC=1C=CC(=CC1)C=2C=C(NC(=O)C(=O)NC(C)C3=NN=C4N=CC=CN34)C=CC2OC] | 25,41 ± 18,52 RUs | – | 1.25 | Negative | – | 256 | –
Cc1cc(C)n2nc(NC(=O)N3CCc4cc(Cl)cc(Cl)c4C3)nc2n1 [Compound 77, CC=1C=C(C)N2N=C(NC(=O)N3CCC=4C=C(Cl)C=C(Cl)C4C3)N=C2N1] | 67,27 ± 12,19 RUs | – | 0.48 | Positive | – | 135 | –
COC1CC(CCC(=O)NC2CC3(CCN(C(=O)c4occc4Br)C3)Oc3ccccc32)C1 (centres unmarked) [Compound 62, COC1CC(CCC(=O)NC2CC3(CCN(C3)C(=O)C=4OC=CC4Br)OC=5C=CC=CC25)C1] | 23,54 ± 4,84 RUs | – | -0.15 | Positive | Negative | – | –
COc1cccc(-n2c(C)nnc2SCC(=O)NC2(CO)CCCCCCC2)c1 [Compound 27, COC=1C=CC=C(C1)N2C(C)=NN=C2SCC(=O)NC3(CO)CCCCCCC3] | 28,33 ± 20,88 RUs | – | – | Negative | Negative | – | -0.98
CCn1nnc2cc(C(=O)N3CCCN(C(=O)c4ccccc4Cl)C(c4ccccc4)C3)ccc21 (centres unmarked) [Compound 34, CCN1N=NC=2C=C(C=CC12)C(=O)N3CCCN(C(C3)C=4C=CC=CC4)C(=O)C=5C=CC=CC5Cl] | 23,05 ± 1,41 RUs | – | 0.86 | Positive | – | 1210 | –
